Test results taken from ChEMBL document CHEMBL1150384, “Design, synthesis, and evaluation of potential inhibitors of nitric oxide synthase” (Bioorg Med Chem, 2008).

Target: Nitric oxide synthase 1 (Homo sapiens, UniProt P29475)
Sequence (P29475 whole entry): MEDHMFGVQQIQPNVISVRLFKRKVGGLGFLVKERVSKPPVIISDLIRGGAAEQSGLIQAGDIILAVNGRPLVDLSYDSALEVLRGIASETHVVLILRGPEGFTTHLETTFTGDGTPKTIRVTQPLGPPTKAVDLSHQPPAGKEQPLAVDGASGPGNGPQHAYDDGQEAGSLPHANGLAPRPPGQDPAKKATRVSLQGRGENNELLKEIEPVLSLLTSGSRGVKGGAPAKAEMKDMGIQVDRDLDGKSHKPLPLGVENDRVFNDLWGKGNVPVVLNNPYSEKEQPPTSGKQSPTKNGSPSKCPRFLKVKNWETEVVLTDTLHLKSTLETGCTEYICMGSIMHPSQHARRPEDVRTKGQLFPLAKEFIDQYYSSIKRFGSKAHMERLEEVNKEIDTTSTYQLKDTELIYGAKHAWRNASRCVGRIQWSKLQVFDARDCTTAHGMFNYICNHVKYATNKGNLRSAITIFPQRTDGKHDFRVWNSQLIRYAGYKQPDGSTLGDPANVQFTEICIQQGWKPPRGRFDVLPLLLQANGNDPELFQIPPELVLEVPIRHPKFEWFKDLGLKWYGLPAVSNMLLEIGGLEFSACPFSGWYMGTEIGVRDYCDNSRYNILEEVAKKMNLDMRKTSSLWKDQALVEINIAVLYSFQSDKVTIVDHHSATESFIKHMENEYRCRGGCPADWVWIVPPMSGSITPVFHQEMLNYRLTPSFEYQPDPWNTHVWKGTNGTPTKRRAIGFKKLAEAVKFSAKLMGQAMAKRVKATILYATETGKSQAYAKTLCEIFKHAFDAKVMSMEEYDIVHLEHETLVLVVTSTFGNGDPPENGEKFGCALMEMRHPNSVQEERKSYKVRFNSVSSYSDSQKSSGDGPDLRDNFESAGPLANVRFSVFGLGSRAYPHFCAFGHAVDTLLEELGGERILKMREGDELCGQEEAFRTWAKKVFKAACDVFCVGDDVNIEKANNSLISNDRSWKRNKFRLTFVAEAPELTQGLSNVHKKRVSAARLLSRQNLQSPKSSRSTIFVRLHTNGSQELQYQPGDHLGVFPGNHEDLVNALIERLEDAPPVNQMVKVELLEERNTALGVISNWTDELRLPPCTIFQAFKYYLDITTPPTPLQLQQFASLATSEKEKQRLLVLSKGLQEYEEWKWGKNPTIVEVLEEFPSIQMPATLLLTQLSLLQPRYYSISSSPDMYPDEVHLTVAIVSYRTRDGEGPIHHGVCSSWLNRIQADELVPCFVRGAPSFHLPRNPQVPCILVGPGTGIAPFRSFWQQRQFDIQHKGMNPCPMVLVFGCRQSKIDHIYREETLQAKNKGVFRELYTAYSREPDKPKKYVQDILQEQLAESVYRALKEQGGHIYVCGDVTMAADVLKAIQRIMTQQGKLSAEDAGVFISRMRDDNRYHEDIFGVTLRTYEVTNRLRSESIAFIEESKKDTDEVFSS
Description: Inhibition of nNOS assessed as conversion of L-[3H]arginine to L-[3H]citrulline

Row | Structure (SMILES) | Ki [µM]
1 | C=CCC(=N)NCCC[C@H](N)C(=O)O | 0.1
2 | N=C(N)SCCc1cccc(CCSC(=N)N)c1 | 0.25
3 | O=C(Cn1ccnc1)c1ccc([N+](=O)[O-])cc1 | 105
4 | NC(=O)[C@@H]1C[C@@H](NC(=O)[C@@H](N)CCC/N=C(\N)N[N+](=O)[O-])CN1 | 0.1
5 | c1ccc(-n2ccnc2)cc1 | 430
6 | NC1=NCCS1 | 0.41
7 | CCCC(=N)NCCC[C@H](N)C(=O)O | 5.3
8 | N=C(NCC1CC1)n1cccn1 | 10
9 | N=C(N)SCCc1ccc(CCSC(=N)N)cc1 | 0.016
10 | NCCCC/N=C(\N)n1cccn1 | 6
11 | N[C@@H](CCCCCCc1cnc[nH]1)C(=O)O | 150
12 | CNC(=N)NN | 14
13 | Cc1nccn1CC(=O)c1ccc([N+](=O)[O-])cc1 | 74
14 | CC(=N)Nc1cccc(CNO)c1 | 2.1
15 | N[C@@H](CCCc1cnc[nH]1)C(=O)O | 2
16 | N[C@@H](CCCCCc1cncn1-c1ccccc1)C(=O)O | 70
17 | Cc1nc(N)sc1C | 0.38
18 | Cc1cc(C)n(C(=N)N)n1 | 350
19 | CC(C)(C)SC(=N)N | 0.62
20 | Cc1cnn(C(=N)N)c1 | 12
21 | Brc1ccc(OCCCCn2ccnc2)cc1 | 32
22 | CC(=N)Nc1cccc(CCN)c1 | 1
23 | CC(=N)Nc1cccc(N)c1 | 14
24 | N=C(N)SCCN | 1.8
25 | CCC/N=C(\N)n1cccn1 | 3
26 | c1ccc(-c2ccc(CCn3ccnc3)cc2)cc1 | 175
27 | Cc1ccn(C(=N)N)n1 | 8

Row | Structure (SMILES) | Ki [µM]
28 | CC(=N)Nc1cccc(C(=N)N)c1 | 0.57
29 | CC(=N)Nc1cccc(CN=C(C)N)c1 | 0.37
30 | CCCCC/N=C(\N)n1cccn1 | 60
31 | N[C@@H](CCCCCc1cnc[nH]1)C(=O)O | 2
32 | O=C(Cn1ccnc1)c1ccccc1[N+](=O)[O-] | 375
33 | Brc1cccc(OCCCCn2ccnc2)c1 | 60
34 | Brc1ccc(OCCn2ccnc2)cc1 | 125
35 | FC(F)(F)c1ccc(OCCn2ccnc2)cc1 | 45
36 | CC(=N)Nc1cccc(CNCc2cccc(C(C)=N)c2)c1 | 0.042
37 | CC(=N)Nc1cccc(CSC(=N)N)c1 | 0.36
38 | N=C(Nc1cccc(CN)c1)n1cccn1 | 2
39 | CC(=N)Nc1cccc(NC(C)=N)c1 | 1.5
40 | OC(Cn1ccnc1)c1ccc(-c2ccccc2)cc1 (centres undefined) | 125
41 | CCCC/N=C(\N)n1cccn1 | 14
42 | CC(C)SC(=N)N | 0.037
43 | CCCSC(=N)N | 0.63
44 | N=C(N)SCCc1ccccc1 | 0.8
45 | CC(C)C/N=C(\N)n1cccn1 | 45
46 | FC(F)(F)c1ccc(OCCCn2ccnc2)cc1 | 75
47 | Nc1nc(CCc2ccccc2)cs1 | 0.89
48 | Brc1ccc(OCCCCCCn2ccnc2)cc1 | 57
49 | Brc1ccc(OCCCn2ccnc2)cc1 | 125
50 | N[C@@H](CCCCc1cnc[nH]1)C(=O)O | 65
51 | N[C@@H](CCc1cnc[nH]1)C(=O)O | 170
52 | N[C@@H](CCCc1cncn1-c1ccccc1)C(=O)O | 80
53 | N[C@@H](CCCCc1cncn1-c1ccccc1)C(=O)O | 100
54 | CNCc1cccc(NC(C)=N)c1 | 0.056

Row | Structure (SMILES) | Ki [µM]
55 | CC(=N)Nc1cccc(S(N)(=O)=O)c1 | 29
56 | N=C(N)SCc1ccc(CSC(=N)N)cc1 | 0.1
57 | N=C(N)SCCCc1cccc(CCCSC(=N)N)c1 | 4.8
58 | Cc1cnc(N)s1 | 1.1
59 | CC(=N)Nc1cccc(CN2CCOCC2)c1 | 2.8
60 | N=C(NC1CC1)n1cccn1 | 50
61 | CC(=N)Nc1cccc(CN(C)C)c1 | 0.17
62 | FC(F)(F)c1ccc(OCCCCn2ccnc2)cc1 | 94
63 | CC(=N)Nc1cccc(NN)c1 | 1.1
64 | Brc1ccccc1OCCCCn1ccnc1 | 180
65 | N=C(N)SCCCc1ccccc1 | 14
66 | Cc1csc(N)n1 | 10
67 | N=C(NN)Nc1ccccc1 | 4
68 | CCNC(=N)NN | 1
69 | CCC(=N)NCCC[C@H](N)C(=O)O | 3
70 | CC(C)=CCSC(=N)N | 2
71 | FC(F)(F)c1ccc(OCCCCCCn2ccnc2)cc1 | 35
72 | N=C(NCCC[C@H](N)C(=O)N[C@@H]1CN[C@@H](C(N)=O)C1)N[N+](=O)[O-] | 1.1
73 | N=C(NN)NO | 0.68
74 | Nc1nccs1 [AMINOTHIAZOLE] | 12
75 | N=C(N)SCc1ccccc1 [BENZYL CARBAMIMIDOTHIOATE] | 14
76 | CCSC(=N)N [ETHYLISOTHIOUREA] | 0.029
77 | c1c[nH]cn1 [IMIDAZOLE] | 175
78 | N=C(N)NN [PIMAGEDINE] | 3.3
79 | N=C(N)n1cccn1 [PRAXADINE] | 0.4
